Drawing on ChEMBL document CHEMBL5465560, “Selectivity Literature for EUbOPEN Chemogenomic Library” (2024), this text covers % of control, % of inhibition and % activity for twelve compounds.

Experiment [1] deals with Serine/threonine-protein kinase MRCK gamma (Homo sapiens) (UniProt Q6DT37). Kind of experiment: Selectivity interaction (Ambit KINOMEscan and KiNATiv profiling in Jurkat cells) EUB0000090b CDC42BPG. Format: cell-based. Conditions: at 1 µM.
For experiment [2], the target named is Protein kinase C alpha type (Homo sapiens, UniProt P17252). Kind of experiment: Selectivity interaction (SelectScreen profiling (Invitrogen)) EUB0000607a PRKCA. As to conditions: at 2 µM.
Experiment [3] concerns the target Cyclin-dependent kinase 2 (Homo sapiens, UniProt P24941). Briefly: Selectivity interaction (KinomeScan (DiscoverX)) EUB0000666a CDK2. Conditions: at 10 µM.
The target in experiment [4] is Activated CDC42 kinase 1 (Homo sapiens, UniProt Q07912). Briefly: Selectivity interaction (KinomeScan (DiscoverX)) EUB0000655a TNK2. Conditions: at 10 µM.
Experiment [5] deals with Fibroblast growth factor receptor 2 (Homo sapiens) (UniProt P21802). Kind of experiment: Selectivity interaction (KinomeScan (DiscoverX)) EUB0001079a FGFR2. Conditions: at 1 µM.
Sequence of Fibroblast growth factor receptor 2 (Homo sapiens) (P21802 22-821 limits assumed): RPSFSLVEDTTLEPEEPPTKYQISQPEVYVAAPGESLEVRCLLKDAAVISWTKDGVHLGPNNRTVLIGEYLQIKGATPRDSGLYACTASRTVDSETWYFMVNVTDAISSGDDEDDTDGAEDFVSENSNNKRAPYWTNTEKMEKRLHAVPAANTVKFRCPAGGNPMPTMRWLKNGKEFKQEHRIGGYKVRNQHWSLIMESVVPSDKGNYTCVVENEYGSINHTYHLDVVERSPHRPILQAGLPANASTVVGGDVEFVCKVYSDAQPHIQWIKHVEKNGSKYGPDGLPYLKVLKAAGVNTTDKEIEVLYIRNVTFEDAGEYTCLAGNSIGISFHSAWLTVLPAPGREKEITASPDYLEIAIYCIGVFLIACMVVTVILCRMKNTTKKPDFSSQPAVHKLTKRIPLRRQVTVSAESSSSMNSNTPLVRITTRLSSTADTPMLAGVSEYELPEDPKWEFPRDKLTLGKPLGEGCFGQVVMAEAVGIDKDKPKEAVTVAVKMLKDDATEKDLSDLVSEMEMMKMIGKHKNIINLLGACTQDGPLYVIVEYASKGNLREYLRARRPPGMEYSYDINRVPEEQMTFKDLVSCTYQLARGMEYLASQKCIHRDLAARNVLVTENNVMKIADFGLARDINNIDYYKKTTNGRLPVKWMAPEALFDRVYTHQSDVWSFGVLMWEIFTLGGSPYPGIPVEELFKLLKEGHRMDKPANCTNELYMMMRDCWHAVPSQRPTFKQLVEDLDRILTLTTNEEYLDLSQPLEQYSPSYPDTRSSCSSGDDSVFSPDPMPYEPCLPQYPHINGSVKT
Experiment [6] has the same target. Kind of experiment: Selectivity interaction (KinaseProfiler screening (Millipore)) EUB0000601a FGFR2. As to conditions: at 3 µM.
Experiment [7] addresses Vascular endothelial growth factor receptor 2 (Homo sapiens, UniProt P35968). Kind of experiment: Selectivity interaction (KinomeScan (DiscoverX)) EUB0000699a KDR. Conditions: at 10 µM.
For experiment [8], the target named is RAC-beta serine/threonine-protein kinase (Homo sapiens) (UniProt P31751). Conditions: at 10 µM.
Sequence of RAC-beta serine/threonine-protein kinase (Homo sapiens) (P31751 whole entry): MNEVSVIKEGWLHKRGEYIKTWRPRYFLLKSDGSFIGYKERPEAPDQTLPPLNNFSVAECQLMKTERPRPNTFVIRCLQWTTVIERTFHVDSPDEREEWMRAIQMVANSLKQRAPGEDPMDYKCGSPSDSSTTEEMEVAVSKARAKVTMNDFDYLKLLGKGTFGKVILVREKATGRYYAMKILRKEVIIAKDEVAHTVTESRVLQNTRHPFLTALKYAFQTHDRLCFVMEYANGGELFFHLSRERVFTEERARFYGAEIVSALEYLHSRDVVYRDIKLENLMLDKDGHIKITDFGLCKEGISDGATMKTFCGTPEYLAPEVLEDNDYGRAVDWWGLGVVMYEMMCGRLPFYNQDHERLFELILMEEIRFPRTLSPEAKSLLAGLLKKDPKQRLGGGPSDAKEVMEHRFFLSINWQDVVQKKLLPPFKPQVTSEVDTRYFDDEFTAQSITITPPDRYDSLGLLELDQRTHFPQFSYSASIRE
Experiment [9] has as its target Mitogen-activated protein kinase 14 (Homo sapiens, UniProt Q16539). Kind of experiment: Selectivity interaction (KinomeScan (DiscoverX)) EUB0001049a MAPK14. Conditions: at 1 µM.
For experiment [10], the target named is Serine/threonine-protein kinase 32C (Homo sapiens) (UniProt Q86UX6). Briefly: Selectivity interaction (KinomeScan (DiscoverX)) EUB0000695a STK32C. Conditions: at 100 nM.
Sequence of Serine/threonine-protein kinase 32C (Homo sapiens) (Q86UX6 whole entry): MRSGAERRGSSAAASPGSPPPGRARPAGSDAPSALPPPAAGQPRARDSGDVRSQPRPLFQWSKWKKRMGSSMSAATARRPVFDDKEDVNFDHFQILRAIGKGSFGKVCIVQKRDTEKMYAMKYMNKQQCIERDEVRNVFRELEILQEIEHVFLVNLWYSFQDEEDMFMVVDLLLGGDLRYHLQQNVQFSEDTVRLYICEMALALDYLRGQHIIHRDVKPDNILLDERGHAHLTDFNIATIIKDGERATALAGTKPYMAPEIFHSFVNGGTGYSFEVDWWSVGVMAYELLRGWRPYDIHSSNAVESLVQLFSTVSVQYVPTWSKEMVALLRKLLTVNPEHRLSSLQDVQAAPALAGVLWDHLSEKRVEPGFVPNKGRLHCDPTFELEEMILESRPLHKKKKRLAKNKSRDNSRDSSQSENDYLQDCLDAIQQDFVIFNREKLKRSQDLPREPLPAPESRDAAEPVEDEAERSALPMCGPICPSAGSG
Experiment [11] has as its target T1, Histone-lysine N-methyltransferase NSD3 (Homo sapiens) (UniProt Q9BZ95).
T1 sequence (whole entry): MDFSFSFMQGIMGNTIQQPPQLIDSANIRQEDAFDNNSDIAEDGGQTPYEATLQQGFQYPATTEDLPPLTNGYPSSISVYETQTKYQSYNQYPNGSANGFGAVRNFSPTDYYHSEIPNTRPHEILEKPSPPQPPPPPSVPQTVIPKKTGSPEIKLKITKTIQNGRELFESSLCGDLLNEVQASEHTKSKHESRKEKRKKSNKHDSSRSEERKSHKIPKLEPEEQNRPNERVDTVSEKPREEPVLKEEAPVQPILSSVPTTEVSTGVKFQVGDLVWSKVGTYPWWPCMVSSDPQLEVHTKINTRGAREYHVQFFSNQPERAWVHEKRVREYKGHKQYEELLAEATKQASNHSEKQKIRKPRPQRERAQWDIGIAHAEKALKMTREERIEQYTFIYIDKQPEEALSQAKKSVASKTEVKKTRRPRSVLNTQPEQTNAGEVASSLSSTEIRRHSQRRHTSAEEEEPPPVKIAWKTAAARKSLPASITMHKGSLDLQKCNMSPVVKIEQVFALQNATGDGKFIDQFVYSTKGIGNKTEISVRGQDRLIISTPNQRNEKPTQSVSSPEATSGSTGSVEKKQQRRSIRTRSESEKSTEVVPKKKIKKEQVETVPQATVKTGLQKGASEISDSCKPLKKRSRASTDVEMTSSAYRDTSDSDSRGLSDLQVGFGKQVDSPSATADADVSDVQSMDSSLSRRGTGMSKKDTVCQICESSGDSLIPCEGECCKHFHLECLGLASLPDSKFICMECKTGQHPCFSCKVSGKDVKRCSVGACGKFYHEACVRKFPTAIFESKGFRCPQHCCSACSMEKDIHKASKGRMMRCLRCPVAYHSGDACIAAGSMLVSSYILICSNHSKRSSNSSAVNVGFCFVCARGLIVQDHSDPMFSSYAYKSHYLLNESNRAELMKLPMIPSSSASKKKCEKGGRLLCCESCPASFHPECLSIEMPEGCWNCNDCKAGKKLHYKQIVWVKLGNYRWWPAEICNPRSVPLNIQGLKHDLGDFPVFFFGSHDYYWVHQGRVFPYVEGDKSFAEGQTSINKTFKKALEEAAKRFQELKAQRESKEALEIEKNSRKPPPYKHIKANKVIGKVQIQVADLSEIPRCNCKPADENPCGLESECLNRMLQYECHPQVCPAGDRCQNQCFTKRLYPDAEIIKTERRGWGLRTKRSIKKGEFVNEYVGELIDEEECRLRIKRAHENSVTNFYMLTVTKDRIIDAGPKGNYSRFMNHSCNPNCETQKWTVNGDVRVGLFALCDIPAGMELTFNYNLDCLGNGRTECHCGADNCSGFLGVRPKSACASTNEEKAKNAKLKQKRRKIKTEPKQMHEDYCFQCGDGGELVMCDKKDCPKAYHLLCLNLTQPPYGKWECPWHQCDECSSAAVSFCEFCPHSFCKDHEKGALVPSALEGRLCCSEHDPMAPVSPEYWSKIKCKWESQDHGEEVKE
Kind of experiment: Selectivity interaction (Transferase panel (protein, RNA, and DNA methyltransferases. and EP300 (acetyltransferase))) EUB0000270b NSD3.

The target of experiment [12] is BMP-2-inducible protein kinase (Homo sapiens) (UniProt Q9NSY1). Kind of experiment: Selectivity interaction (KinomeScan (DiscoverX)) EUB0000092b BMP2K. Conditions: at 10 µM.
Experiment [13] has as its target T2, Serine/threonine-protein kinase NLK (Homo sapiens) (UniProt Q9UBE8).
T2 sequence (whole entry): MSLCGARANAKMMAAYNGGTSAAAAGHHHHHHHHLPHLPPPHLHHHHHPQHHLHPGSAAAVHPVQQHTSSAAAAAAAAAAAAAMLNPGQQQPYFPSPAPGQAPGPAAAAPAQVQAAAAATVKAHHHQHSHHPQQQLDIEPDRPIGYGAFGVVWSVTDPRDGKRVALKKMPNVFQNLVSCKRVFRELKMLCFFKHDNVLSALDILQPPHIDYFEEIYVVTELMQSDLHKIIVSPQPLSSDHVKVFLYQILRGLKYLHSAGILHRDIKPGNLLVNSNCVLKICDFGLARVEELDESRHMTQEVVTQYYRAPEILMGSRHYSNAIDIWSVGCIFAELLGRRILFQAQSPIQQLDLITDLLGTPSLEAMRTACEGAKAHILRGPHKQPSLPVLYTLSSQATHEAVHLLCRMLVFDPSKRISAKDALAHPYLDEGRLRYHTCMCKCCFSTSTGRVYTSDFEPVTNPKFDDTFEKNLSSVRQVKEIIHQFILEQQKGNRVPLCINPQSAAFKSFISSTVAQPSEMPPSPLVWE
Briefly: Selectivity interaction (KinomeScan (DiscoverX)) EUB0000092b NLK. Conditions: at 10 µM.

Experiment [14] deals with Vascular endothelial growth factor receptor 3 (Homo sapiens, UniProt P35916). Kind of experiment: Selectivity interaction (KinomeScan (DiscoverX)) EUB0000092b FLT4. Conditions: at 10 µM.
The target of experiment [15] is Tyrosine-protein kinase BTK (Homo sapiens, UniProt Q06187). As to conditions: at 1 µM.
Sequence of Tyrosine-protein kinase BTK (Q06187 whole entry): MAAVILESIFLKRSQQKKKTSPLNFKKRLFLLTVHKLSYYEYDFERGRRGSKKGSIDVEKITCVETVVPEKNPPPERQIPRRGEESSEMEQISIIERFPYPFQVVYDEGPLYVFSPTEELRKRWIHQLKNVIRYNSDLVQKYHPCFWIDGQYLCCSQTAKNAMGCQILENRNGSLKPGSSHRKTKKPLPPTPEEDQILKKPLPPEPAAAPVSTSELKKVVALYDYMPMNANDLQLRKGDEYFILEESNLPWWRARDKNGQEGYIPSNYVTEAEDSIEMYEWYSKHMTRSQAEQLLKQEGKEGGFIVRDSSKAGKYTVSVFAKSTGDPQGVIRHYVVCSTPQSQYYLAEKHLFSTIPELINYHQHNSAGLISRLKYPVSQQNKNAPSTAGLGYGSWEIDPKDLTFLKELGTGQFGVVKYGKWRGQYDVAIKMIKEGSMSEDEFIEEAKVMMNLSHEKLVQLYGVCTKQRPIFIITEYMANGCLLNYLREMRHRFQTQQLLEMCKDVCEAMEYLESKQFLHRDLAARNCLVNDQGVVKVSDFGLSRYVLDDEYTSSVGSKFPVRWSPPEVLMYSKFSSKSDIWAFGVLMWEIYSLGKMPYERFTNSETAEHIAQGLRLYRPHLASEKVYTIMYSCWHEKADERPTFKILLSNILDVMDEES

A value given as a limit tells only on which side of the number the result lay.

Sequence of Vascular endothelial growth factor receptor 2 (P35968 whole entry): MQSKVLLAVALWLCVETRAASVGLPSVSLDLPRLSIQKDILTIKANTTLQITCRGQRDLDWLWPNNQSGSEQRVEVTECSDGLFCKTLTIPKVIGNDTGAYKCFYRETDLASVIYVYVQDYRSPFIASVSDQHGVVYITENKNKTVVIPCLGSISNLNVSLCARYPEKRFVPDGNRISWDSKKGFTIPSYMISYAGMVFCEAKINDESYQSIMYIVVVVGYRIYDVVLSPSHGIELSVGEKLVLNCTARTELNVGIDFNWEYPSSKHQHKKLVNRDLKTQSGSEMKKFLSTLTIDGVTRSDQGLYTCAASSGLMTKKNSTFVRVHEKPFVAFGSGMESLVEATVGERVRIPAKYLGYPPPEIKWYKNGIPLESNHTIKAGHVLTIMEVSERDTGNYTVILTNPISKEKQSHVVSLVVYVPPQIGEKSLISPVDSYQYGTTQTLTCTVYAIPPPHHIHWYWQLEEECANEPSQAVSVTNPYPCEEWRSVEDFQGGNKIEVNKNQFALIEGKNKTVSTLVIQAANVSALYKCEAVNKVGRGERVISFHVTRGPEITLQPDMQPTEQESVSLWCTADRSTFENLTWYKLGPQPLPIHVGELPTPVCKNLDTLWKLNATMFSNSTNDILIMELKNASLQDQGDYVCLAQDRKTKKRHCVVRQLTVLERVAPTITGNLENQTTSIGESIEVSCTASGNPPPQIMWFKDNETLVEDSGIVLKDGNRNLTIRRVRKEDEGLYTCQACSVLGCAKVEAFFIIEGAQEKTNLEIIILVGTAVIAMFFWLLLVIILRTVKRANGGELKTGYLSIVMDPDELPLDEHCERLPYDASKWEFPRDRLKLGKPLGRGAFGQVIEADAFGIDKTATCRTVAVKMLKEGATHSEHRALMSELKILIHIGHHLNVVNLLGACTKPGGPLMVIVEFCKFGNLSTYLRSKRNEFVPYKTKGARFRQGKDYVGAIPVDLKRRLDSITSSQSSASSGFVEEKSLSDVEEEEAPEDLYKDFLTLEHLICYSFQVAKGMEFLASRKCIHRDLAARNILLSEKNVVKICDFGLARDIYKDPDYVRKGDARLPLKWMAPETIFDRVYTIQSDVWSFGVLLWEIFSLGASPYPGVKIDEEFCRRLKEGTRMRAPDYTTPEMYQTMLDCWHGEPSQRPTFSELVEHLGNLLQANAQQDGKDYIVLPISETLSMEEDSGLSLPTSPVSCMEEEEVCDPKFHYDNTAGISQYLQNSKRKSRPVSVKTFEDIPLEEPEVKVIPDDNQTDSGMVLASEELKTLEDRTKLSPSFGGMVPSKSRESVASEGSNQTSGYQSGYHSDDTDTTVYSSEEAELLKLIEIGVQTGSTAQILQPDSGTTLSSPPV
Sequence of Mitogen-activated protein kinase 14 (Q16539 whole entry): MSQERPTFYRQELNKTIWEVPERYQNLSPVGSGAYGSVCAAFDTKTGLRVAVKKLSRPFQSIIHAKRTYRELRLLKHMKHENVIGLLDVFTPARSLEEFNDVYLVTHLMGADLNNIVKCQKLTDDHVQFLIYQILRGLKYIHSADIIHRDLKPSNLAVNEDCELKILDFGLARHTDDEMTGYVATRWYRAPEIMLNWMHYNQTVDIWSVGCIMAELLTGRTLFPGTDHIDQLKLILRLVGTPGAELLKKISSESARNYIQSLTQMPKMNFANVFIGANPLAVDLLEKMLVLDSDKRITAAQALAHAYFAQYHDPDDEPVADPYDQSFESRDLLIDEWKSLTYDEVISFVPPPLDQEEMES

Take `CN(C)C/C=C/C(=O)Nc1ccc(C(=O)N2CCCC(Nc3ncc(Cl)c(-c4c[nH]c5ccccc45)n3)C2)cc1` (stereo unspecified): in experiment [1], the % of control came out at 90%.

As for `CNC(=O)Nc1ccc(-c2nc(N3CC4CCC(C3)O4)c3cnn(C4CCC5(CC4)OCCO5)c3n2)cc1`, the % of inhibition in [2] is 10%.

As to `O=C(NOC[C@H](O)CO)c1ccc(F)c(F)c1Nc1ccc(I)cc1F`, in [3], the % of control worked out at 91%.

`CN(C)CCOc1ccc(-c2nc(-c3ccncc3)c(-c3ccc4c(c3)CC/C4=N\O)[nH]2)cc1` showed a % of control in experiment [4] of 100%.

For the compound `Nc1cnc(N2CCc3cc(S(=O)(=O)Nc4c(F)cc(Cl)cc4F)cc(N4CCCC4=O)c32)nc1` [TP-020n], the % of control in [5] was 100%.

Compound `CCc1cc(Nc2nccc(-c3c(-c4ccc(OC)c(C(=O)Nc5c(F)cccc5F)c4)nc4ccccn34)n2)c(OC)cc1N1CCC(N2CCN(S(C)(=O)=O)CC2)CC1` showed a % of inhibition in experiment [6] of 50%.

For the compound `CCN(CC)CCCCNc1ncc2cc(-c3cc(OC)cc(OC)c3)c(NC(=O)NC(C)(C)C)nc2n1`, the % of control in [7] turned out to be 21%; in experiment [8], 100%.

In turn, `COc1cc(Nc2nc(C)cc(-c3cnn4nc(OC)ccc34)n2)cc(C(F)(F)F)c1` had a % of control in [9] of 87%.

In turn, `Cc1cc(F)c(C(=O)Nc2cccc(-c3nncn3C(C)C)n2)cc1-n1cnc(C2CC2)c1` had a % of control in experiment [10] of 100%.

Consider `Cc1cc(CN)cc(C)c1-c1ncn(C)c1-c1cncn1C`, for which the % activity in experiment [11] (at 1 µM) is more than 90%; in experiment [11] (at 10 µM), more than 80%.

Take `CCC(=O)N1CCN(c2ccc(-n3c(=O)ccc4cnc5ccc(-c6cnc7ccccc7c6)cc5c43)cc2C(F)(F)F)CC1`: the % of control came out at 100% in [12], 25% in [13] and 74% in [14].

`C=CC(=O)Nc1cc(-n2c(=O)ccc3cnc4ccc(-c5ccc(NS(C)(=O)=O)cc5)cc4c32)ccc1C`: in [15], the % of control amounted to 1%.
